{"source": "patent US20070128217A1", "about": "(priority 2003, published 2007)", "key": {"[1]": {"tested_on": "antibodies in sera from SARS patients (sera 1a, 1b, 2, 6, 37, 62, London, SARS-yellow, SARS-green)", "assay_type": "binding, human", "parameters": "Binding of serum 6 to linear peptides of protein X1 of SARS-CoV Urbani / Binding of serum 37 to linear peptides of protein X1 of SARS-CoV Urbani / Binding of serum 6 to looped/cyclic peptide (PEPSCAN-ELISA) / Binding of serum 37 to looped/cyclic peptide (PEPSCAN-ELISA) / Binding of serum 37 to looped/cyclic peptides of protein X1 of SARS-CoV Urbani / Binding of serum 6 to linear peptides of protein X2 / Binding of serum 37 to linear peptides of protein X2 / Binding of serum 37 to looped/cyclic peptides of protein X2 of SARS-CoV Urbani / Binding of serum 6 to linear peptides of protein M of SARS-CoV Urbani / Binding of serum 37 to linear peptides of protein M of SARS-CoV Urbani / Binding of serum 6 to looped/cyclic peptides of protein M of SARS-CoV Urbani / Binding of serum 37 to looped/cyclic peptides of protein M of SARS-CoV Urbani / Binding of serum 6 to linear peptides of protein X3 of SARS-CoV Urbani / Binding of serum 37 to linear peptides of protein X3 of SARS-CoV Urbani / Binding of serum 37 to looped/cyclic peptides of protein X3 of SARS-CoV Urbani / Binding of serum 6 to linear peptides of protein X4 of SARS-CoV Urbani / Binding of serum 37 to linear peptides of protein X4 of SARS-CoV Urbani / Binding of serum 37 to looped/cyclic peptides of protein X4 of SARS-CoV Urbani / Binding of serum 6 to linear peptides of protein X5 of SARS-CoV Urbani / Binding of serum 37 to linear peptides of protein X5 of SARS-CoV Urbani / Binding of serum 37 to looped/cyclic peptides of protein X5 of SARS-CoV Urbani / Binding of serum 6 to linear peptides of protein N of SARS-CoV Urbani / Binding of serum 37 to linear peptides of protein N of SARS-CoV Urbani / Binding of serum 6 to linear peptide (PEPSCAN-ELISA) / Binding of serum 1a to looped/cyclic peptides of protein N of SARS-CoV Urbani / Binding of serum 1b to looped/cyclic peptides of protein N of SARS-CoV Urbani / Binding of serum 2 to looped/cyclic peptides of protein N of SARS-CoV Urbani / Binding of serum 6 to looped/cyclic peptides of protein N of SARS-CoV Urbani / Binding of serum 37 to looped/cyclic peptides of protein N of SARS-CoV Urbani / Binding of serum 62 to looped/cyclic peptides of protein N of SARS-CoV Urbani / Binding of serum London to looped/cyclic peptides of protein N of SARS-CoV Urbani / Binding of serum SARS-green to looped/cyclic peptides of protein N of SARS-CoV Urbani: unit not given here"}, "[2]": {"tested_on": "control sera (pooled serum of ten healthy LUMC hospital workers; commercial negative donor pooled serum from the Dutch bloodbank)", "assay_type": "binding, human", "parameters": "Binding of Control serum LUMC to linear peptides / Binding of Control serum Blood-bank to linear peptides / Binding of Control serum LUMC to looped peptides / Binding of Control Serum Blood-Bank to Looped peptides / Binding of Control serum LUMC to linear peptides of the protein M of SARS-CoV Urbani / Binding of Control serum Blood-bank to linear peptides of the protein M of SARS-CoV Urbani / Binding of Control serum LUMC to looped peptides of the protein M of SARS-CoV Urbani / Binding of Control Serum Blood-Bank to Looped peptides of the protein M of SARS-CoV Urbani: unit not given here"}, "[3]": {"tested_on": "rabbit serum obtained by immunizing a rabbit with the SARS-CoV strain Frankfurt 1", "assay_type": "binding", "parameters": "Binding of a rabbit serum to linear peptides / Binding of a rabbit serum to looped peptides / Rabbit serum linear peptides / Rabbit serum looped peptides / Binding of a rabbit serum to linear peptides of protein N of SARS-CoV Urbani (Rabbit serum linear peptides) / Binding of a rabbit serum to looped/cyclic peptides of protein N of SARS-CoV Urbani (Rabbit serum looped peptides): unit not given here"}}, "data": [{"sequence": "VGTDSGFAAYNRYRI", "values": [{"measurement": "Binding of serum 1a to linear peptides of protein M of SARS-CoV Urbani", "setting": "[1]", "result": 0.8}, {"measurement": "Binding of serum 1a to looped/cyclic peptides of protein M of SARS-CoV Urbani", "setting": "[1]", "result": 0.7}, {"measurement": "Binding of serum 1b to linear peptides of protein M of SARS-CoV Urbani", "setting": "[1]", "result": 0.4}, {"measurement": "Binding of serum 1b to looped/cyclic peptides of protein M of SARS-CoV Urbani", "setting": "[1]", "result": 0.4}, {"measurement": "Binding of serum 2 to linear peptides of protein M of SARS-CoV Urbani", "setting": "[1]", "result": 0.4}, {"measurement": "Binding of serum 2 to looped/cyclic peptides of protein M of SARS-CoV Urbani", "setting": "[1]", "result": 0.7}, {"measurement": "Binding of serum 6 to linear peptides of protein M of SARS-CoV Urbani", "setting": "[1]", "result": 0.3}, {"measurement": "Binding of serum 6 to looped/cyclic peptides of protein M of SARS-CoV Urbani", "setting": "[1]", "result": 0.6}, {"measurement": "Binding of serum 37 to linear peptides of protein M of SARS-CoV Urbani", "setting": "[1]", "result": 0.6}, {"measurement": "Binding of serum 37 to looped/cyclic peptides of protein M of SARS-CoV Urbani", "setting": "[1]", "result": 0.7}, {"measurement": "Binding of serum 62 to linear peptides of protein M of SARS-CoV Urbani", "setting": "[1]", "result": 0.7}, {"measurement": "Binding of serum 62 to looped/cyclic peptides of protein M of SARS-CoV Urbani", "setting": "[1]", "result": 0.8}, {"measurement": "Binding of serum London to linear peptides of protein M of SARS-CoV Urbani", "setting": "[1]", "result": 0.3}, {"measurement": "Binding of serum London to looped/cyclic peptides of protein M of SARS-CoV Urbani", "setting": "[1]", "result": 0.2}, {"measurement": "Binding of serum SARS-green to linear peptides of protein M of SARS-CoV Urbani", "setting": "[1]", "result": 0.3}, {"measurement": "Binding of serum SARS-green to looped/cyclic peptides of protein M of SARS-CoV Urbani", "setting": "[1]", "result": 0.4}, {"measurement": "Binding of serum SARS-yellow to linear peptides of protein M of SARS-CoV Urbani", "setting": "[1]", "result": 0.1}, {"measurement": "Binding of serum SARS-yellow to looped/cyclic peptides of protein M of SARS-CoV Urbani", "setting": "[1]", "result": 0.5}, {"measurement": "Binding of Control Serum Blood-Bank to Looped peptides of the protein M of SARS-CoV Urbani", "setting": "[2]", "result": 0.5}, {"measurement": "Binding of Control serum Blood-bank to linear peptides of the protein M of SARS-CoV Urbani", "setting": "[2]", "result": 0.7}, {"measurement": "Binding of Control serum LUMC to linear peptides of the protein M of SARS-CoV Urbani", "setting": "[2]", "result": 0.3}, {"measurement": "Binding of Control serum LUMC to looped peptides of the protein M of SARS-CoV Urbani", "setting": "[2]", "result": 0.6}, {"measurement": "Rabbit serum linear peptides", "setting": "[3]", "result": 0.4}, {"measurement": "Rabbit serum looped peptides", "setting": "[3]", "result": 0.0}]}, {"sequence": "HSSSLTSLLKTHRMC", "values": [{"measurement": "Binding of serum 1a to linear peptides of protein X2", "setting": "[1]", "result": 0.6}, {"measurement": "Binding of serum 1a to looped/cyclic peptides of protein X2 of SARS-CoV Urbani", "setting": "[1]", "result": 0.4}, {"measurement": "Binding of serum 1b to linear peptides of protein X2", "setting": "[1]", "result": 0.5}, {"measurement": "Binding of serum 1b to looped/cyclic peptides of protein X2 of SARS-CoV Urbani", "setting": "[1]", "result": 0.4}, {"measurement": "Binding of serum 2 to linear peptides of protein X2", "setting": "[1]", "result": 0.3}, {"measurement": "Binding of serum 2 to looped/cyclic peptides of protein X2 of SARS-CoV Urbani", "setting": "[1]", "result": 0.3}, {"measurement": "Binding of serum 6 to linear peptides of protein X2", "setting": "[1]", "result": 0.5}, {"measurement": "Binding of serum 6 to looped/cyclic peptides of protein X2 of SARS-CoV Urbani", "setting": "[1]", "result": 0.2}, {"measurement": "Binding of serum 37 to linear peptides of protein X2", "setting": "[1]", "result": 0.5}, {"measurement": "Binding of serum 37 to looped/cyclic peptides of protein X2 of SARS-CoV Urbani", "setting": "[1]", "result": 0.3}, {"measurement": "Binding of serum 62 to linear peptides of protein X2", "setting": "[1]", "result": 0.6}, {"measurement": "Binding of serum 62 to looped/cyclic peptides of protein X2 of SARS-CoV Urbani", "setting": "[1]", "result": 0.4}, {"measurement": "Binding of serum London to linear peptides of protein X2", "setting": "[1]", "result": 0.5}, {"measurement": "Binding of serum London to looped/cyclic peptides of protein X2 of SARS-CoV Urbani", "setting": "[1]", "result": 0.2}, {"measurement": "Binding of serum SARS-green to linear peptides of protein X2", "setting": "[1]", "result": 0.5}, {"measurement": "Binding of serum SARS-green to looped/cyclic peptides of protein X2 of SARS-CoV Urbani", "setting": "[1]", "result": 0.3}, {"measurement": "Binding of serum SARS-yellow to linear peptides of protein X2", "setting": "[1]", "result": 0.4}, {"measurement": "Binding of serum SARS-yellow to looped/cyclic peptides of protein X2 of SARS-CoV Urbani", "setting": "[1]", "result": 0.4}, {"measurement": "Binding of Control Serum Blood-Bank to Looped peptides", "setting": "[2]", "result": 0.5}, {"measurement": "Binding of Control serum Blood-bank to linear peptides", "setting": "[2]", "result": 0.8}, {"measurement": "Binding of Control serum LUMC to linear peptides", "setting": "[2]", "result": 0.4}, {"measurement": "Binding of Control serum LUMC to looped peptides", "setting": "[2]", "result": 0.5}, {"measurement": "Binding of a rabbit serum to linear peptides", "setting": "[3]", "result": 0.2}, {"measurement": "Binding of a rabbit serum to looped peptides", "setting": "[3]", "result": 0.5}]}, {"sequence": "RFLYIIKLVFLWLLW", "values": [{"measurement": "Binding of serum 1a to linear peptides of protein M of SARS-CoV Urbani", "setting": "[1]", "result": 0.7}, {"measurement": "Binding of serum 1b to linear peptides of protein M of SARS-CoV Urbani", "setting": "[1]", "result": 0.7}, {"measurement": "Binding of serum 2 to linear peptides of protein M of SARS-CoV Urbani", "setting": "[1]", "result": 0.6}, {"measurement": "Binding of serum 6 to linear peptides of protein M of SARS-CoV Urbani", "setting": "[1]", "result": 0.8}, {"measurement": "Binding of serum 37 to linear peptides of protein M of SARS-CoV Urbani", "setting": "[1]", "result": 0.4}, {"measurement": "Binding of serum 62 to linear peptides of protein M of SARS-CoV Urbani", "setting": "[1]", "result": 0.4}, {"measurement": "Binding of serum London to linear peptides of protein M of SARS-CoV Urbani", "setting": "[1]", "result": 0.6}, {"measurement": "Binding of serum SARS-green to linear peptides of protein M of SARS-CoV Urbani", "setting": "[1]", "result": 0.6}, {"measurement": "Binding of serum SARS-yellow to linear peptides of protein M of SARS-CoV Urbani", "setting": "[1]", "result": 0.3}, {"measurement": "Recognition of the peptide by sera of SARS-CoV infected individuals, and form (linear, looped/cyclic) in which it is recognized", "setting": "[1]", "result": "recognized in looped/cyclic form"}, {"measurement": "Binding of Control Serum Blood-Bank to Looped peptides of the protein M of SARS-CoV Urbani", "setting": "[2]", "result": 0.7}, {"measurement": "Binding of Control serum Blood-bank to linear peptides of the protein M of SARS-CoV Urbani", "setting": "[2]", "result": 0.7}, {"measurement": "Binding of Control serum LUMC to linear peptides of the protein M of SARS-CoV Urbani", "setting": "[2]", "result": 0.8}, {"measurement": "Binding of Control serum LUMC to looped peptides of the protein M of SARS-CoV Urbani", "setting": "[2]", "result": 0.8}, {"measurement": "Rabbit serum linear peptides", "setting": "[3]", "result": 0.2}, {"measurement": "Rabbit serum looped peptides", "setting": "[3]", "result": 0.3}]}]}
